Assays:
Assay type in all cases: cell-based, mouse
RAW 264.7 cells [1] = test: Gene expression analysis (qPCR) of M1 cytokines and Inos; details: for effect on nab-paclitaxel-dependent M1 cytokine expression: co-treatment with nab-paclitaxel
Protocol: Cell lines and cell culture treatments. All cells were maintained under 5% CO2 at 37° C. and cultured in DMEM (Gibco) supplemented with 10% FBS (Gibco), penicillin and streptomycin (Gibco), and 25 mmol/L HEPES (Gibco). Mouse RAW 264.7 cells were obtained from the American Type Culture Collection (2014, ATCC TIB-71). Mouse KPC cells were a kind gift from Dr. R. H. Vonderheide (2013) and generated as previously described (Lo et al., “Tumor-Promoting Desmoplasia Is Disrupted by Depleting FAP-Expressing Stromal Cells,” Cancer Res. 75:2800-10 (2015), which is hereby incorporated by reference in its entirety). Cell lines were not authenticated and were tested for mycoplasma contamination every 3 months by DAPI stain of cells grown for 1 week in the absence of antibiotics. KPC and RAW 264.7 were propagated for 2 to 3 passages (approximately 1 week) prior to use in all experiments and were kept in culture for no longer than 1 month. Recombinant mouse interferon gamma IFNγ was purchased from R&D Systems (CN 485 MI/CF), LPS (L2630), and paclitaxel (T7402) were purchased from Sigma-Aldrich, CLI-095 was purchased from Invivogen (TLRL-CLI95), BAPTA-AM was purchased from Life Technologies (B6769), and 5-(N-ethyl-N-isopropyl) amiloride (EIPA) was purchased from Invitrogen Molecular Probes (e-3111). Reagents were used at concentrations of 5 ng/mL (IFNγ), 20 ng/mL (LPS), […] (paclitaxel), 500 nmol/L (CLI-095), […] (BAPTA-AM), and […] (EIPA) unless indicated otherwise. Tetramethylrhodamine (TMR)-labeled dextran was purchased from Invitrogen (D1822). Nab-paclitaxel (Abraxane; Abraxis BioScience) pharmaceutical grade powder was purchased through the NYU Langone Medical Center pharmacy and used at a concentration of […] for in vitro experiments.
Gene expression analysis. For in vitro qPCR analysis, total RNAwas harvested 2 hours (IL1α, IL1β, IL6, TNFα, and iNOS) or 8 hours (IL12β) after cell culture treatments, using the QIAGEN RNA extraction Kit (QIAGEN). For in vivo gene expression analysis, the CD45 F4/80 double-positive population was sorted directly into TRIzol LS Reagent (Thermo-FisherScientific; CN 10296) from dissociated orthotopic tumors 48 hours after treatment, and total RNA was purified according to the manufacturer's protocol. Purified RNA ([…]) was reverse-transcribed using the QuantiTect Reverse Transcription Kit (QIAGEN), and 1 of 10 of cDNA mixture (in vitro experiments) or 1 of 3 of cDNA mixture (in vivo experiments) was used for qPCR reaction. Primers were obtained from Integrated DNA Technologies (IDT) with the following sequences (5′-3′): Il1α (Forward) […] (SEQ ID NO: 2), (Reverse) […] (SEQ ID NO: 3); Il1β (Forward) […] (SEQ ID NO: 4), (Reverse) […] (SEQ ID NO: 5); Il6 (Forward) […]-[…] (SEQ ID NO: 6), (Reverse) […] (SEQ ID NO: 7); Inos (Forward) […] (SEQ ID NO: 8), (Reverse) […] (SEQ ID NO: 9); Tnfα (Forward) […] (SEQ ID NO: 10), (Reverse) […] (SEQ ID NO: 11); Il12b (IIl12 p40) (Forward) […] (SEQ ID NO: 12), (Reverse) […]-[…] (SEQ ID NO: 13); Gapdh (Forward) […] (SEQ ID NO: 14), (Reverse) […] (SEQ ID NO: 15); Rps29 […] (SEQ ID NO: 16) (Forward), […]-GCGTACT (SEQ ID NO: 17) (Reverse).

RAW 264.7 cells [2] = test: Macropinocytosis assay: OG-nab-paclitaxel internalization by macrophages; details: 30 minute pretreatment with inhibitor or blocking antibody
Protocol: (§1) Cell lines and cell culture treatments. All cells were maintained under 5% CO2 at 37° C. and cultured in DMEM (Gibco) supplemented with 10% FBS (Gibco), penicillin and streptomycin (Gibco), and 25 mmol/L HEPES (Gibco). Mouse RAW 264.7 cells were obtained from the American Type Culture Collection (2014, ATCC TIB-71). Mouse KPC cells were a kind gift from Dr. R. H. Vonderheide (2013) and generated as previously described (Lo et al., “Tumor-Promoting Desmoplasia Is Disrupted by Depleting FAP-Expressing Stromal Cells,” Cancer Res. 75:2800-10 (2015), which is hereby incorporated by reference in its entirety). Cell lines were not authenticated and were tested for mycoplasma contamination every 3 months by DAPI stain of cells grown for 1 week in the absence of antibiotics. KPC and RAW 264.7 were propagated for 2 to 3 passages (approximately 1 week) prior to use in all experiments and were kept in culture for no longer than 1 month. Recombinant mouse interferon gamma IFNγ was purchased from R&D Systems (CN 485 MI/CF), LPS (L2630), and paclitaxel (T7402) were purchased from Sigma-Aldrich, CLI-095 was purchased from Invivogen (TLRL-CLI95), BAPTA-AM was purchased from Life Technologies (B6769), and 5-(N-ethyl-N-isopropyl) amiloride (EIPA) was purchased from Invitrogen Molecular Probes (e-3111). […]

RAW 264.7 cells [3] = test: Western blot analysis of M1 cytokine and iNOS protein expression
Protocol: as §1

[4] = nab-ptx in combination with IFNγ

| Structure (SMILES) | effect on nab-paclitaxel-dependent M1 cytokine expression (RAW 264.7 cells [1]) | effect on OG-nab-paclitaxel internalization (RAW 264.7 cells [2]) | effect on nab-paclitaxel-driven iNOS protein expression (RAW 264.7 cells [3]; [4]) | effect on nab-paclitaxel-driven iNOS gene expression (RAW 264.7 cells [1]; [4]) | effect on nab-paclitaxel and LPS-dependent iNOS protein expression (RAW 264.7 cells [3]; with IFNγ) | effect on LPS-dependent Il1α, Il1β, Il6, Il12b, and Tnfα gene expression (RAW 264.7 cells [1]; TLR4 inhibitor with LPS) | effect on nab-paclitaxel-dependent Il1α, Il1β, Il6, Il12b, and Tnfα gene expression (RAW 264.7 cells [1]; TLR4 inhibitor with nab-ptx) |
| --- | --- | --- | --- | --- | --- | --- | --- |
| CC(=O)OCOC(=O)CN(CC(=O)OCOC(C)=O)c1ccccc1OCCOc1ccccc1N(CC(=O)OCOC(C)=O)CC(=O)OCOC(C)=O [BAPTA-AM] | inhibited | – | – | – | – | – | – |
| CCN(c1nc(N)c(C(=O)N=C(N)N)nc1Cl)C(C)C [EIPA, 5-(N-ethyl-N-isopropyl) amiloride] | inhibited | reduced | partially inhibited | partially inhibited | – | – | – |
| CCOC(=O)C1=CCCC[C@H]1S(=O)(=O)Nc1ccc(F)cc1Cl [CLI-095] | – | – | – | – | abrogated | abrogated | abrogated |

Source: patent US12016881B2, “Methods and reagents for modulating macrophage phenotype” (NEW YORK UNIVERSITY, priority 2016, dated 2024)
